The assay deals with SN12K1 renal. Description: NCI tumour cell line growth inhibition, 48 h.

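Briefly, cells in 96-well plates were exposed to five compound concentrations for 48 h, and endpoints were estimated by linear interpolation. TGI: concentration producing complete growth inhibition.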

With `Cc1c(-c2ccc(-c3ccccc3F)cc2)nc2ccc(F)cc2c1C(=O)O`, the TGI stood at 70.9 µM.
